From PubChem BioAssay (NCI)
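Results reflect a 48-hour exposure of cells in 96-well plates to compound at five concentrations. Abbreviation: GI50, concentration required for 50% inhibition of growth. At the TGI there is no net growth.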

Experiments:
Test in all cases: DTP human tumour cell line panel, 48 h
DU-145 prostate = test system: DU-145 prostate
RPMI-8226 leukemia = test system: RPMI-8226 leukemia
HL-60(TB) leukemia = test system: HL-60(TB) leukemia
A498 renal = test system: A498 renal
SF-295 CNS = test system: SF-295 CNS
SR leukemia = test system: SR leukemia
CCRF-CEM leukemia = test system: CCRF-CEM leukemia
TK-10 renal = test system: TK-10 renal
SN12C renal = test system: SN12C renal
SK-MEL-2 melanoma = test system: SK-MEL-2 melanoma
NCI/ADR-RES ovarian = test system: NCI/ADR-RES ovarian
HS 578T breast = test system: HS 578T breast
KM12 colon = test system: KM12 colon
MALME-3M melanoma = test system: MALME-3M melanoma
OVCAR-4 ovarian = test system: OVCAR-4 ovarian
SK-OV-3 ovarian = test system: SK-OV-3 ovarian
EKVX NSCLC = test system: EKVX NSCLC
COLO 205 colon = test system: COLO 205 colon
SK-MEL-28 melanoma = test system: SK-MEL-28 melanoma
SW-620 colon = test system: SW-620 colon
NCI-H460 lung = test system: NCI-H460 lung
K-562 leukemia = test system: K-562 leukemia
OVCAR-8 ovarian = test system: OVCAR-8 ovarian
HCT-116 colon = test system: HCT-116 colon
HT29 colon = test system: HT29 colon
NCI-H23 lung = test system: NCI-H23 lung
RXF 393 renal = test system: RXF 393 renal
SF-268 CNS = test system: SF-268 CNS
ACHN renal = test system: ACHN renal
T-47D breast = test system: T-47D breast
OVCAR-5 ovarian = test system: OVCAR-5 ovarian
U251 CNS = test system: U251 CNS
UO-31 renal = test system: UO-31 renal
MDA-MB-435 = test system: MDA-MB-435
LOX IMVI melanoma = test system: LOX IMVI melanoma
M14 melanoma = test system: M14 melanoma
OVCAR-3 ovarian = test system: OVCAR-3 ovarian
UACC-62 melanoma = test system: UACC-62 melanoma
MOLT-4 leukemia = test system: MOLT-4 leukemia
PC-3 prostate = test system: PC-3 prostate
SNB-75 CNS = test system: SNB-75 CNS
UACC-257 melanoma = test system: UACC-257 melanoma
CAKI-1 renal = test system: CAKI-1 renal
HOP-92 NSCLC = test system: HOP-92 NSCLC
NCI-H522 lung = test system: NCI-H522 lung
MCF7 breast = test system: MCF7 breast
SK-MEL-5 melanoma = test system: SK-MEL-5 melanoma
MDA-MB-468 breast = test system: MDA-MB-468 breast
HCC-2998 colon = test system: HCC-2998 colon
A549 NSCLC = test system: A549 NSCLC
MDA-MB-231 breast = test system: MDA-MB-231 breast
786-0 renal = test system: 786-0 renal
SF-539 CNS = test system: SF-539 CNS
BT-549 breast = test system: BT-549 breast
IGROV1 ovarian = test system: IGROV1 ovarian
HOP-62 NSCLC = test system: HOP-62 NSCLC
SNB-19 CNS = test system: SNB-19 CNS
NCI-H226 lung = test system: NCI-H226 lung
HCT-15 colon = test system: HCT-15 colon

N#C/C(=C\c1ccc(N(c2ccccc2)c2ccccc2)cc1)C(N)=O
GI50 (DU-145 prostate): > 100 µM | TGI (DU-145 prostate): > 100 µM | GI50 (RPMI-8226 leukemia): 12.4 µM | TGI (RPMI-8226 leukemia): > 100 µM | GI50 (HL-60(TB) leukemia): > 100 µM | TGI (HL-60(TB) leukemia): > 100 µM | GI50 (A498 renal): 1110 nM | TGI (A498 renal): 2610 nM | GI50 (SF-295 CNS): 7.24 µM | TGI (SF-295 CNS): > 100 µM | GI50 (SR leukemia): > 100 µM | TGI (SR leukemia): > 100 µM | GI50 (CCRF-CEM leukemia): > 100 µM | TGI (CCRF-CEM leukemia): > 100 µM | GI50 (TK-10 renal): 797 nM | TGI (TK-10 renal): 3.92 µM | GI50 (SN12C renal): > 77.1 µM | TGI (SN12C renal): > 100 µM | GI50 (SK-MEL-2 melanoma): 29 µM | TGI (SK-MEL-2 melanoma): > 100 µM | GI50 (NCI/ADR-RES ovarian): 21.6 µM | TGI (NCI/ADR-RES ovarian): > 100 µM | GI50 (HS 578T breast): 38.4 µM | TGI (HS 578T breast): > 100 µM | GI50 (KM12 colon): > 100 µM | TGI (KM12 colon): > 100 µM | GI50 (MALME-3M melanoma): 42.9 µM | TGI (MALME-3M melanoma): > 100 µM | GI50 (OVCAR-4 ovarian): 2280 nM | TGI (OVCAR-4 ovarian): 16.1 µM | GI50 (SK-OV-3 ovarian): 25.3 µM | TGI (SK-OV-3 ovarian): > 100 µM | GI50 (EKVX NSCLC): > 100 µM | TGI (EKVX NSCLC): > 100 µM | GI50 (COLO 205 colon): 15.3 µM | TGI (COLO 205 colon): > 100 µM | GI50 (SK-MEL-28 melanoma): > 100 µM | TGI (SK-MEL-28 melanoma): > 100 µM | GI50 (SW-620 colon): 8.69 µM | TGI (SW-620 colon): > 100 µM | GI50 (NCI-H460 lung): 1740 nM | TGI (NCI-H460 lung): > 67.2 µM | GI50 (K-562 leukemia): 43.9 µM | TGI (K-562 leukemia): > 100 µM | GI50 (OVCAR-8 ovarian): 35.1 µM | TGI (OVCAR-8 ovarian): > 100 µM | GI50 (HCT-116 colon): 758 nM | TGI (HCT-116 colon): > 100 µM | GI50 (HT29 colon): 16.9 µM | TGI (HT29 colon): > 100 µM | GI50 (NCI-H23 lung): 15.3 µM | TGI (NCI-H23 lung): > 100 µM | GI50 (RXF 393 renal): 1330 nM | TGI (RXF 393 renal): 20.3 µM | GI50 (SF-268 CNS): 67.3 µM | TGI (SF-268 CNS): > 100 µM | GI50 (ACHN renal): 64.4 µM | TGI (ACHN renal): > 100 µM | GI50 (T-47D breast): 1060 nM | TGI (T-47D breast): 5.27 µM | GI50 (OVCAR-5 ovarian): 1120 nM | TGI (OVCAR-5 ovarian): 3.07 µM | GI50 (U251 CNS): 2990 nM | TGI (U251 CNS): > 100 µM | GI50 (UO-31 renal): 25.7 µM | TGI (UO-31 renal): > 100 µM | GI50 (MDA-MB-435): > 100 µM | TGI (MDA-MB-435): > 100 µM | GI50 (LOX IMVI melanoma): > 89 µM | TGI (LOX IMVI melanoma): > 100 µM | GI50 (M14 melanoma): > 100 µM | TGI (M14 melanoma): > 100 µM | GI50 (OVCAR-3 ovarian): 4.6 µM | TGI (OVCAR-3 ovarian): > 95.9 µM | GI50 (UACC-62 melanoma): 308 nM | TGI (UACC-62 melanoma): 1370 nM | GI50 (MOLT-4 leukemia): > 100 µM | TGI (MOLT-4 leukemia): > 100 µM | GI50 (PC-3 prostate): > 69.8 µM | TGI (PC-3 prostate): > 100 µM | GI50 (SNB-75 CNS): 19.8 µM | TGI (SNB-75 CNS): > 93.9 µM | GI50 (UACC-257 melanoma): 839 nM | TGI (UACC-257 melanoma): 3.53 µM | GI50 (CAKI-1 renal): 308 nM | TGI (CAKI-1 renal): 2480 nM | GI50 (HOP-92 NSCLC): 29.7 µM | TGI (HOP-92 NSCLC): > 92.4 µM | GI50 (NCI-H522 lung): > 78.9 µM | TGI (NCI-H522 lung): > 100 µM | GI50 (MCF7 breast): 661 nM | TGI (MCF7 breast): > 100 µM | GI50 (SK-MEL-5 melanoma): 11 µM | TGI (SK-MEL-5 melanoma): > 100 µM | GI50 (MDA-MB-468 breast): 145 nM | TGI (MDA-MB-468 breast): 351 nM | GI50 (HCC-2998 colon): > 64.1 µM | TGI (HCC-2998 colon): > 100 µM | GI50 (A549 NSCLC): 22.7 µM | TGI (A549 NSCLC): > 100 µM | GI50 (MDA-MB-231 breast): > 72.5 µM | TGI (MDA-MB-231 breast): > 100 µM | GI50 (786-0 renal): 18 µM | TGI (786-0 renal): > 92.1 µM | GI50 (SF-539 CNS): 68 µM | TGI (SF-539 CNS): > 100 µM | GI50 (BT-549 breast): > 100 µM | TGI (BT-549 breast): > 100 µM | GI50 (IGROV1 ovarian): 946 nM | TGI (IGROV1 ovarian): 4.64 µM | GI50 (HOP-62 NSCLC): 3.9 µM | TGI (HOP-62 NSCLC): 31.5 µM | GI50 (SNB-19 CNS): 37.3 µM | TGI (SNB-19 CNS): > 100 µM | GI50 (NCI-H226 lung): 240 nM | TGI (NCI-H226 lung): 989 nM | GI50 (HCT-15 colon): > 100 µM | TGI (HCT-15 colon): > 100 µM
